According to PubChem BioAssay AID2060349 (Molecular Pharmacology Branch, DTP, NCI, 2025):

System: 762968-020-R-J2-PDC spheroids viability
Experiment: Anticancer human tumor 762968-020-R-J2-PDC patient-derived colon carcinoma cell line growth inhibition [TAK]
Details: spheroids with HUVEC and MSC; for IC50: curve of first compound; for viability, T/C: stronger effect = lower value
Procedure, shortened: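 Tumor cells were grown as spheroids with HUVEC and hMSC (60:25:15) and treated with targeted agents combined with TAK-243 or ipatasertib. Drugs were tested in half-log steps down from near the clinical Cmax, or from 10 microM where Cmax was unknown.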

[1] = second compound 0.3 µM, first compound 0.0316 µM
[2] = second compound 0.3 µM, first compound 0.1 µM
[3] = second compound 0.3 µM, first compound 0.316 µM
[4] = second compound 0.3 µM, first compound 1 µM
[5] = second compound 0.949 µM, first compound 0.0316 µM
[6] = second compound 0.949 µM, first compound 0.1 µM
[7] = second compound 0.949 µM, first compound 0.316 µM
[8] = second compound 0.949 µM, first compound 1 µM
[9] = second compound 3 µM, first compound 0.0316 µM
[10] = second compound 3 µM, first compound 0.1 µM
[11] = second compound 3 µM, first compound 0.316 µM
[12] = second compound 3 µM, first compound 1 µM
[13] = second compound 9.49 µM, first compound 0.0316 µM
[14] = second compound 9.49 µM, first compound 0.1 µM
[15] = second compound 9.49 µM, first compound 0.316 µM
[16] = second compound 9.49 µM, first compound 1 µM
[17] = second compound 30 µM, first compound 0.0316 µM
[18] = second compound 30 µM, first compound 0.1 µM
[19] = second compound 30 µM, first compound 0.316 µM
[20] = second compound 30 µM, first compound 1 µM
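Also: spheroids exposed to drug for 7 days before readout.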
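For viability, T/C in this document: 100% = DMSO vehicle control wells.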

| Structure (SMILES) | IC50 (second compound 0.3 µM) | IC50 (second compound 0.949 µM) | IC50 (second compound 3 µM) | IC50 (second compound 9.49 µM) | IC50 (second compound 30 µM) | viability, T/C [1] | viability, T/C [2] | viability, T/C [3] | viability, T/C [4] | viability, T/C [5] | viability, T/C [6] | viability, T/C [7] | viability, T/C [8] | viability, T/C [9] | viability, T/C [10] | viability, T/C [11] | viability, T/C [12] | viability, T/C [13] | viability, T/C [14] | viability, T/C [15] | other results |
| --- | --- | --- | --- | --- | --- | --- | --- | --- | --- | --- | --- | --- | --- | --- | --- | --- | --- | --- | --- | --- | --- |
| COc1c(OCCCN2CCOCC2)ccc2c3n(c(=NC(=O)c4cnc(N)nc4)nc12)CCN3 + CC(C)NCC(C(=O)N1CCN(c2ncnc3c2C(C)CC3O)CC1)c1ccc(Cl)cc1 | > 1 µM | > 1 µM | > 1 µM | > 1 µM | > 1 µM | 89.3% | 85.1% | 69.4% | 66.8% | 94% | 84.7% | 71.3% | 70% | 98.3% | 89.9% | 71.6% | 60.2% | 88.6% | 85% | 78% | viability, T/C (second compound 0.3 µM, first compound 0.00316 µM): 95.4%; viability, T/C (second compound 0.3 µM, first compound 0.01 µM): 101%; viability, T/C (second compound 0.949 µM, first compound 0.00316 µM): 101%; viability, T/C (second compound 0.949 µM, first compound 0.01 µM): 96.7%; viability, T/C (second compound 3 µM, first compound 0.00316 µM): 105%; viability, T/C (second compound 3 µM, first compound 0.01 µM): 100%; viability, T/C (second compound 9.49 µM, first compound 0.00316 µM): 102%; viability, T/C (second compound 9.49 µM, first compound 0.01 µM): 94.7%; viability, T/C [16]: 67%; viability, T/C (second compound 30 µM, first compound 0.00316 µM): 91.8%; viability, T/C (second compound 30 µM, first compound 0.01 µM): 81.3%; viability, T/C [17]: 79.4%; viability, T/C [18]: 69.5%; viability, T/C [19]: 68.7%; viability, T/C [20]: 59.1% |
| Cc1nc(NC(=O)N2CCCC2C(N)=O)sc1-c1ccnc(C(C)(C)C(F)(F)F)c1 (stereo not given) + CC(C)NCC(C(=O)N1CCN(c2ncnc3c2C(C)CC3O)CC1)c1ccc(Cl)cc1 | > 10 µM | > 10 µM | > 10 µM | > 10 µM | > 10 µM | 119% | 109% | 99.4% | 92.5% | 113% | 111% | 97.2% | 102% | 108% | 109% | 108% | 102% | 110% | 108% | 105% | viability, T/C (second compound 0.3 µM, first compound 3.16 µM): 98.8%; viability, T/C (second compound 0.3 µM, first compound 10 µM): 89.7%; viability, T/C (second compound 0.949 µM, first compound 3.16 µM): 99.5%; viability, T/C (second compound 0.949 µM, first compound 10 µM): 94.6%; viability, T/C (second compound 3 µM, first compound 3.16 µM): 94.4%; viability, T/C (second compound 3 µM, first compound 10 µM): 99.7%; viability, T/C [16]: 106%; viability, T/C (second compound 9.49 µM, first compound 3.16 µM): 94%; viability, T/C (second compound 9.49 µM, first compound 10 µM): 89.6%; viability, T/C [17]: 78.6%; viability, T/C [18]: 81.5%; viability, T/C [19]: 81.8%; viability, T/C [20]: 75.7%; viability, T/C (second compound 30 µM, first compound 3.16 µM): 74.3%; viability, T/C (second compound 30 µM, first compound 10 µM): 69.8% |
